Series [1] is described as follows: Pharmacokinetics in male Sprague Dawley rats after intravenous and subcutaneous injection (Example 10). The class given is in vivo. The settings on record: 1 μmol net peptide/kg, rat; for Tlast (last time point with detectable peptide): listed as HBD1 (3-11) with stearic acid at the N-terminus (C18:0). On the procedure:
The peptides were reconstituted in saline (0.9% NaCl). Three male Sprague Dawley rats were used per group. Intravenous doses were administered into a lateral tail vein at the dose of 1 μmol net peptide/kg. Subcutaneous doses were administered into the right flank of each animal, also at the dose of 1 μmol net peptide/kg. Following dosing, serial whole blood samples (ca. 0.25 mL) were collected from a lateral tail vein into K2EDTA treated containers. Following each blood sample collection, samples were placed into a cooling block at 4° C. Samples were collected prior to dosing then at 2, 5, 15 and 30 minutes then 1, 2, 4, 6 and 8 and 24 hours post dose for intravenous injection and at 15 and 30 minutes then 1, 2, 4, 6, 8 and 24 hours post dose for subcutaneous injection.
Blood samples were centrifuged at 10000×g for 2 minutes at 4° C. and resultant plasma aspirated off into clean fully, labelled tubes. Plasma samples were snap frozen following aspiration then stored at −80° C. Peptides were extracted and analyzed as described in Example 9. The limits of quantification of these methods were 0.001 nmol/mL for cyclic HBD1 (3-11) and HBD1 (3-11) and 0.003 nmol/mL for HBD1 (1-13). All values below these limits of quantification were considered as zero.

Series [2] in a line: Pharmacokinetics of acylated analogs in male Sprague Dawley rats after subcutaneous injection (Example 11). The class given is in vivo. Particulars: sc, rat.
Series [3] can be described thus: Pharmacokinetics in Göttingen minipigs after intravenous and subcutaneous injection (Example 12). The class given is in vivo. Particulars: minipig; for Cmax: read-out: maximum concentrations (Cmax), mean; for AUC(0-t): read-out: mean total exposure (AUC0-t); for Tmax: read-out: times post dose for maximum concentration (Tmax), median. Here is the method: The peptide was reconstituted in saline (0.9% NaCl). Three Göttingen minipigs (approximately 8-10 months of age) were used per group. Intravenous doses were administered into an ear vein at the dose of 0.5 μmol net peptide/kg. Subcutaneous doses were administered into the right flank of each animal, also at the dose of 0.5 μmol net peptide/kg. Following dosing, serial whole blood samples (ca. 0.25 mL) were collected from a jugular vein into K2EDTA treated containers. Following each blood sample collection, samples were placed into a cooling block at 4° C. Samples were collected prior to dosing then at 5 and 30 minutes then 1, 2, 4, 8, 25, 48, 72 and 96 hours post dose for intravenous injection and at 15 and 30 minutes then 1, 2, 4, 8, 25, 48, 72 and 96 hours post dose for subcutaneous injection.
Blood samples were centrifuged at 10000×g for 2 minutes at 4° C. and resultant plasma aspirated off into clean fully, labelled tubes. Plasma samples were snap frozen following aspiration then stored at −80° C. Peptide extraction and analysis were performed as described in Example 9. The limit of quantification of this method is 0.0015 nmol/mL. All values below this limit of quantification are considered as zero.

For series [4], the system named is ovariectomized (OVX) rats. Description: Bone μCT of proximal tibia in ovariectomized (OVX) rats after 6-week treatment. The format is in vivo, female Sprague-Dawley rats. Particulars: 0.8, 1.6 or 3.2 mg/kg s.c. twice a day, 6 weeks; dose-dependent. Here is the method:
(§1) Effects on bone of three doses of HBD1 (3-11) with stearic acid at the N-terminus (C18:0) analog were tested in vivo in ovariectomized (OVX) rats, a recognized model for human osteoporosis, in particular postmenopausal osteoporosis. Each group included ten female Sprague-Dawley rats that were four months of age at the beginning of the in-life phase of the study. Treatment started six weeks after OVX surgery and lasted for six additional weeks. Groups were randomized before surgery according to body weight and tibial metaphysis Bone Mineral Density (BMD) as measured by peripheral quantitative computed tomography (pQCT) from Norland Stratec XCT Research SA equipment (Norland Stratec Medizintechnik, Birkenfeld, Germany).
(§2) The peptide was reconstituted in saline solution (0.9% NaCl) and administered subcutaneously twice a day at the doses of 0.8 mg/kg (low), 1.6 mg/kg (med) or 3.2 mg/kg (high) in a volume of 1 mL/kg. The control group was administered twice a day with saline by s.c. administration. Rats were weighed once a week and the volume of dosing solution administered was adjusted accordingly.
High-resolution micro-computed tomography (μCT) measurements using SkyScan 1072 or 1172 High Resolution Scanner (Bruker microCT, Kontich, Belgium) were performed ex vivo in right proximal tibia at the end of the treatment period for measuring bone volume, bone cross-sectional dimensions and bone microarchitecture. FIGS. 5A, 5B and 5C show the percent increase from OVX animals HBD1 (3-11) with stearic acid at the N-terminus (C18:0) groups for following selected parameters: Bone Volume Fraction (BV/TV; %), Trabecular number (Tb.N; mm^−1) and Connectivity Density (Conn.D; mm^−3).

For series [5], the system named is ovariectomized (OVX) rats. Description: Bone biomechanical tests (lumbar vertebrae compression, femoral neck cantilever bending) in OVX rats. The class given is in vivo, female Sprague-Dawley rats. The settings on record: 3.2 mg/kg BID s.c., 6 weeks. Here is the method:
as §1, §2
Bone biomechanical properties were determined by compression test using Instron 3343 biomechanical testing system (Instron, Norwood, Mass., USA). […]

Where [6] appears, read: male, Sprague Dawley, plasma, iv.
[7] abbreviates: male, Sprague Dawley, plasma, sc.
The mark [8] stands for this setting: Göttingen, plasma, 0.5 umol/kg, iv, 0.5 μmol/kg.
Setting [9] is: Göttingen, plasma, 0.5 umol/kg, sc, 0.5 μmol/kg.

Residues, ends and D or L forms follow the SMILES beside them. *: point of attachment. Stearoyl = CCCCCCCCCCCCCCCCCC(=O)*

Broadly, the bioavailability is the share of a dose that reaches the circulation, judged against a reference dose that is usually intravenous.

For the molecule `CCCCCCCCCCCCCCCCCC(=O)N[C@@H](Cc1c[nH]cn1)C(=O)N[C@@H](CC(C)C)C(=O)NCC(=O)N[C@@H](CC(C)C)C(=O)N[C@@H](CCC(=O)O)C(=O)N[C@@H](CCC(=O)O)C(=O)N1CCC[C@H]1C(=O)N[C@@H](CCCCN)C(=O)N[C@@H](CCCCN)C(=O)O` [SEQ ID NO: 73, C18:0-HLGLEEPKK] (Stearoyl-HLGLEEPKK-OH; C-terminus assumed), the “Tlast (last time point with detectable peptide)” value in series [1] (iv) and in series [1] (sc) was 8 h each time. The bioavailability in series [1] (male, Sprague Dawley, plasma, subcutaneous, sc vs iv, read-out: F (bioavailability)) is 52%; in series [3] (Göttingen, plasma, sc, 0.5 umol/kg, read-out: mean calculated subcutaneous bioavailability relative to i.v.) it was 83.1%. Further, the AUC(0-t) in series [1] (setting [6]) worked out at 9.28 µM·h; in series [1] (setting [7]), 4.81 µM·h; in series [3] (setting [8]), 3.75 µM·h; in series [3] (setting [9]), 3.07 µM·h. The Cmax was found to be 10.2 µM in series [1] (setting [6]), 0.54 µM in series [1] (setting [7]), 6.27 µM in series [3] (setting [8]) and 0.29 µM in series [3] (setting [9]). Further, the Tmax was 0.033 h in series [1] (setting [6]), 4 h in series [1] (setting [7]), 0.083 h in series [3] (setting [8]) and 4 h in series [3] (setting [9]). In addition, the “peptide exposure compared among acylated peptides (in words)” value in series [2] is recorded as “higher peptide exposure”. Moreover, the “exposure duration after subcutaneous administration” value in series [3] (sc, 0.5 μmol/kg) is recorded as “up to 25 hours”. For the same molecule, in series [4], the “Bone Volume Fraction (BV/TV) at tibial metaphysis vs OVX vehicle” value is on record as “increased”. For the same molecule, the “Connectivity Density (Conn.D) at tibial metaphysis vs OVX vehicle” value in series [4] is recorded as “increased”. Besides, in series [4], the “Trabecular number (Tb.N) at tibial metaphysis vs OVX vehicle” value was “increased”. The “biomechanical properties of femoral neck (load at break point)” value in series [5] is recorded as “improved”. In series [5], the “biomechanical properties of lumbar vertebrae (maximal load, energy absorption at maximal load, stress at maximal load)” value is “improved”.

The values above are taken from patent US20190352358A1, “COMPOUNDS, COMPOSITIONS AND USES THEREOF FOR IMPROVEMENT OF BONE DISORDERS” (ALIZE PHARMA III SAS, priority 2017, published 2019).
